Results reported in patent US20210283215A1, “BACTERIOTHERAPY AGAINST PROPRIONIBACTERIUM ACNES FOR THE TREATMENT OF ACNE” (The Regents of the University of California, priority 2018, published 2021).

What follows are substances tested on C. acnes C2 (assay: Inhibition of C. acnes C2 growth, 72 h culture). Conditions: C. acnes C2, 72 h culture.
Format: cell-based

| Substance | concentration inhibiting growth of C. acnes |
| --- | --- |
| PSMβ4: phenol soluble modulin beta peptide of S. capitis E12, SEQ ID NO: 9443, individually synthesized (MTKLAEAIANAVKAGQDQDWAKLGTSIVGIAENGISLLGKVFGF; listed as Staphylococcus capitis) | 125 µg/mL |
| PSMβ6: phenol soluble modulin beta peptide of S. capitis E12, SEQ ID NO: 9447, individually synthesized (MEKLFDAIRNTVDAGINQDWTKLGTSIVDIVDNGVKVISKFIGA; listed as Staphylococcus capitis) | 62 µg/mL |
| PSMβ1: phenol soluble modulin beta peptide of S. capitis E12, SEQ ID NO: 9437, individually synthesized (MTKLAEAIANTVKAGQDHDWAKLGTSIVGIAENGIGLLGKVFGF; listed as Staphylococcus capitis) | 62 µg/mL |
